This note sets out measurements from US10273243B2, “4-phenylpiperidines, their preparation and use” (The Trustees of Columbia University in the City of New York, priority 2013, dated 2019).

The compound `CCC(=O)N1Cc2[nH]nc(C(=O)N3CCC(c4ccccc4C(F)(F)F)CC3)c2C1` [Example 53, 1-(3-(4-(2-(Trifluoromethyl)phenyl)piperidine-1-carbonyl)pyrrolo[3,4-c]pyrazol-5(1H,4H,6H)-yl)propan-1-one] gave a melting point of 216 to 219 °C. For `CC(C)C(=O)N1Cc2[nH]nc(C(=O)N3CCC(c4ccccc4C(F)(F)F)CC3)c2C1` [Example 54] the value was 192 to 195 °C. For `CC(C)CC(=O)N1Cc2[nH]nc(C(=O)N3CCC(c4ccccc4C(F)(F)F)CC3)c2C1` [Example 55, 3-Methyl-1-(3-(4-(2-(trifluoromethyl)phenyl)piperidine-1-carbonyl)pyrrolo[3,4-c]pyrazol-5(1H,4H,6H)-yl)butan-1-one] the value was 200 to 203 °C.

Consider `CC(C)(C)C(=O)N1Cc2[nH]nc(C(=O)N3CCC(c4ccccc4C(F)(F)F)CC3)c2C1` [Example 56, 2,2-Dimethyl-1-(3-(4-(2-(trifluoromethyl)phenyl)piperidine-1-carbonyl)pyrrolo[3,4-c]pyrazol-5(1H,4H,6H)-yl)propan-1-one], for which the melting point lay within 229 to 232 °C. The result for `Cc1cnc2cc(C(=O)N3CCC(c4ccccc4C(F)(F)F)CC3)[nH]c2c1` [Example 70, (6-Methyl-1H-pyrrolo[3,2-b]pyridin-2-yl)(4-(2-(trifluoromethyl)phenyl)piperidin-1-yl)methanone] reads 254 to 258 °C; that for `O=C(c1nc2ncccc2[nH]1)N1CCC(c2ccccc2C(F)(F)F)CC1` [Example 71, (1H-Imidazo[4,5-b]pyridin-2-yl)(4-(2-(trifluoromethyl)phenyl)piperidin-1-yl)methanone], 249 to 251 °C; that for `Cn1c(C(=O)N2CCC(c3ccccc3C(F)(F)F)CC2)cc2ncccc21` [Example 74, (1-Methyl-1H-pyrrolo[3,2-b]pyridin-2-yl)(4-(2-(trifluoromethyl)phenyl)piperidin-1-yl)methanone], 159 to 163 °C. The result for `O=C(c1cc2ncc(-n3ccnc3)cc2[nH]1)N1CCC(c2ccccc2C(F)(F)F)CC1` [Example 75, (6-(1H-Imidazol-1-yl)-1H-pyrrolo[3,2-b]pyridin-2-yl)(4-(2-(trifluoromethyl)phenyl)piperidin-1-yl)methanone] reads > 270 °C. In the case of `O=C(c1cc2ncc(N3CCOCC3)cc2[nH]1)N1CCC(c2ccccc2C(F)(F)F)CC1` [Example 76, (6-Morpholino-1H-pyrrolo[3,2-b]pyridin-2-yl)(4-(2-(trifluoromethyl)phenyl)piperidin-1-yl)methanone], the melting point was 268 to 272 °C (dec.). The result for `O=C(c1cc2ncc(Cl)cc2[nH]1)N1CCC(c2ccccc2C(F)(F)F)CC1` [Example 77, (6-Chloro-1H-pyrrolo[3,2-b]pyridin-2-yl)(4-(2-(trifluoromethyl)phenyl)piperidin-1-yl)methanone] reads 258 to 261 °C; that for `O=C(c1ccnnc1)N1CCC(c2ccccc2C(F)(F)F)CC1` [Example 80, Pyridazin-4-yl(4-(2-(trifluoromethyl)phenyl)piperidin-1-yl)methanone], 159 to 162 °C; that for `O=C(c1ccc2nccn2n1)N1CCC(c2ccccc2C(F)(F)F)CC1` [Example 81, Imidazo[1,2-b]pyridazin-6-yl(4-(2-(trifluoromethyl)phenyl)piperidin-1-yl)methanone], 152 to 155 °C. The result for `O=C(c1cccnn1)N1CCC(c2ccccc2C(F)(F)F)CC1` [Example 82, Pyridazin-3-yl(4-(2-(trifluoromethyl)phenyl)piperidin-1-yl)methanone] reads 125 to 127 °C; that for `O=C(c1ccc(Cl)nn1)N1CCC(c2ccccc2C(F)(F)F)CC1` [Example 83, (6-Chloropyridazin-3-yl)(4-(2-(trifluoromethyl)phenyl)piperidin-1-yl)methanone], 170 to 172 °C.

Broadly, the melting point is the temperature, or range, at which the solid turns liquid.
